Results from patent publication US11434242B2, “Dopamine-b-hydroxylase inhibitors” (BIAL-PORTELA & Cª, S.A., priority 2017, dated 2022).
Counter-ions that a name gives are not always drawn.

Key:
[1] = test system: noradrenaline (NA) in brain stem; experiment: Catecholamine determination: noradrenaline in brain stem after oral administration; format: in vivo, Wistar rats; conditions: 10 mg/kg oral; for NA in Br.s (% Control): rat brain stem noradrenaline, 15 h post-dose, mean±SD of 4 rats; for effect on levels of NA in CNS tissues such as brain stem: rat
Protocol: Catecholamines quantification in brain stem was performed as previously described (Bonifacio, M. J.; Sousa, F.; Neves, M.; Palma, N.; Igreja, B.; Pires, N. M.; Wright, L. C.; Soares-da-Silva, P. “Characterization of the interaction of the novel anthyhypertensive etamicastat with human dopamine-beta-hydroxylase: comparison with nepicastat.” Eur. J. Pharmacol. 751, 50-58, 2015) with minor modifications. Test compounds were prepared in 40% of kleptose at a concentration of 2.5 mg/ml to be administered at a dose of 10 mg/kg. Compounds and vehicle (kleptose 40%) were administered to Wistar rats and tissues (brain stem or heart left ventricle) collected in perchloric acid (0.2M) at defined time points after administration. Tissues were stored overnight at 4° C. and the solution was then filtered by centrifugation (1500 g, 4 min, 4° C.) through 0.22 μm pore size filters (Costar Spin-x from Corning Inc., USA). Catecholamines were quantified in filtrates by directly injecting 50 μl of sample volume on a HPLC system with electrochemical detection, using a Spheri-5RP-185 mm column (Perkin-Elmer). Mobile phase consisted of a solution containing 0.1M citric acid, 0.1M sodium acetate, 0.15 mM EDTA, 1 mM dibutylamine, 1 mM octylsulfate, and 5% methanol adjusted to pH 3.5 with perchloric acid.

[2] = target: T1, Dopamine beta hydroxylase (Rattus norvegicus, UniProt Q05754); experiment: DβH activity in rat adrenal gland homogenates after oral administration; format: in vivo; conditions: 10 mg/kg oral; for DβH activity in ADR (% Control): rat adrenal gland homogenates, maximal within 6 h post-dose, mean±SD of 4 rats; for DβH inhibition in peripheral tissues such as ADR: rat
T1 construct: Samples were constituted by the right and left adrenals of each animal; from tissue; host or cells: Wistar rat adrenal glands (homogenate)
T1 sequence (Q05754 1-620): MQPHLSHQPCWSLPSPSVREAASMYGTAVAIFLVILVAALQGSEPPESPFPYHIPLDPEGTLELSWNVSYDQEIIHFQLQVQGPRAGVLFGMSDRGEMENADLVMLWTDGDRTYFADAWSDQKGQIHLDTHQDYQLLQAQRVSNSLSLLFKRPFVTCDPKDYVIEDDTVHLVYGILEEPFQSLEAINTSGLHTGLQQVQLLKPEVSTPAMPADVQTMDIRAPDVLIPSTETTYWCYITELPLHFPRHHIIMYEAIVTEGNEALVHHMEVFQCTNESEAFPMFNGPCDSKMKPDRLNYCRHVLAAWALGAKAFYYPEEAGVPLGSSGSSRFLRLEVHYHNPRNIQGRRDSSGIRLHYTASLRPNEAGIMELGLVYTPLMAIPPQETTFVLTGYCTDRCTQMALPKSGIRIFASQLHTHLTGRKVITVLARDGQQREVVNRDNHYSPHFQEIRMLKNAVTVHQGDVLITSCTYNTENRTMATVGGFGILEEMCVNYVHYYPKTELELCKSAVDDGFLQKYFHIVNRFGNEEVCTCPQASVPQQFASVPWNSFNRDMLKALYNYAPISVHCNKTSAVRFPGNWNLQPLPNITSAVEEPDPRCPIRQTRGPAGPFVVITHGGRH
Protocol: Dopamine beta hydroxylase activity in rat adrenal gland homogenates was measured by the method of Nagatsu and Udenfriend (Nagatsu, T. and Udenfriend, S. “Photometric assay of dopamine-μ-hydroxylase activity in human blood.” Clin. Chem. 18(9) 980-983, 1972) with minor modifications. Catalase, N-ethylmaleimide, tyramine, disodium fumarate, pargyline, sodium acetate, ascorbic acid, copper sulfate and octopamine were obtained from Sigma Chemical Co., St. Louis, Mo. 63178. Test compounds were prepared in kleptose 40% at a concentration of 0.75, 2.5 or 7.5 mg/mL to be administered at a dose of 10 mg/kg. Compounds and vehicle (kleptose 40%) were administered to wistar rats and adrenals were collected 0.5 h, 1 h, 2 h, 4 h, 6 h, 8 h, 15 h and 24 h after administration. Samples were constituted by the right and left adrenals of each animal. Adrenals were stored in 200 μL of 50 mM Tris pH 7.4 at −30° C., from date of collection. The samples were homogenized and homogenates were then quantified for protein. Protein concentration was adjusted to 1.6 mg/ml. The various reagents used to make up the incubation buffer were premixed and consisted of the following components: sodium acetate buffer (1 M, pH 5.0, 6.0 mL), sodium fumarate (0.2 M, 1.5 mL), ascorbic acid (0.2 M, 1.5 mL, freshly prepared), pargyline (20 mM, freshly prepared, 1.5 mL), N-ethylmaleimide (0.2 M, 1.5 mL), catalase (55 000 U/ml, 3 mL), copper sulfate (90 μM, 1.67 mL) and ultrapure water (1.33 mL). The standard incubation mixture (total volume, 500 μL) contained: 350 μL of incubation buffer; 125 μL of protein sample (or buffer for blank reaction or standard curve). The reaction mixture was placed in water bath with shaking at 37° C. and pre-incubated for 10 minutes. Tyramine (0.4 M, 25 μL) was added and incubation proceeded for 45 minutes. The reaction contents were exposed to air. A sample of enzyme preparation (with 125 μL of protein sample) that had been added perchloric acid 2 M at the end of the pre-incubation period was used as blank. A blank for each of the tested compounds was used. For octopamine standard curve, perchloric acid 2 M was replaced by increasing concentrations of octopamine prepared in perchloric acid 2 M (0.5, 1, 2.5, 5, 7.5, 10 μg/mL, final concentration). The incubation was stopped by adding 50 μL of 2 M molar perchloric acid, and the mixture was centrifuged at 16000 g for 3 min. The supernatant fluid (500 μL) was transferred to a column (SPE cartridge ISOLUTE SCX-3, 100 mg) and centrifuged at 150 g for 2 min. The column was washed two more times with 0.5 ml of ultrapure water by centrifuging at 150 g for 2 min. The adsorbed octopamine was eluted twice with 250 μL of 4 M ammonium hydroxide by centrifuging at 150 g for 2 min. Octopamine in the eluate was then converted to p-hydroxybenzaldehyde by adding 100 μL of sodium periodate (2%) and incubating for 6 min. Excess periodate was than reduced by adding 100 μl of sodium metabisulfite (10%). Absorbance was measured at […] in a 96 well plate by use of a SpectraMAX plus 384 (Molecular Devices) with software SOFTmax® PRO Software 5.3 spectrophotometer. Absorbance was linear with octopamine concentration from 0.5 to 10 μg/mL. Dopamine beta hydroxylase activity is determined as nmol of octopamine formed/mg of protein/hour and effect of compounds is presented as % of control.

DβH activity in ADR (% Control) [2] [% Control]	DβH inhibition in peripheral tissues such as ADR [2]	SMILES	NA in Br.s (% Control) [1] [% Control]	effect on levels of NA in CNS tissues such as brain stem [1]
39 ± 18	inhibit DβH	Cl.Fc1ccc(Cl)cc1[C@]12C[C@H]1c1c(CCN3CCOCC3)[nH]c(=S)n1C2 [Example 174, (5aS,6aR)-5a-(5-chloro-2-fluorophenyl)-1-(2-morpholinoethyl)-5,5a,6,6a-tetrahydrocyclopropa[3,4]pyrrolo[1,2-c]imidazole-3(2H)-thione hydrochloride]	84 ± 8	failed to reduce levels of NA
43 ± 16	inhibit DβH	Fc1cc(F)c(F)c([C@H]2Cc3c(CCCN4CCCC4)[nH]c(=S)n3C2)c1F [Example 219, (R)-1-(3-(pyrrolidin-1-yl)propyl)-6-(2,3,5,6-tetrafluorophenyl)-2,5,6,7-tetrahydro-3H-pyrrolo[1,2-c]imidazole-3-thione hydrochloride]	92 ± 23	failed to reduce levels of NA
0 ± 0	inhibit DβH	CN(C(=O)Cc1c2n(c(=S)n1C)C[C@@]1(c3c(F)ccc(Cl)c3F)C[C@@H]21)C1COC1 [Example 403, 2-((5aS,6aR)-5a-(3-chloro-2,6-difluorophenyl)-2-methyl-3-thioxo-2,3,5,5a,6,6a-hexahydrocyclopropa[3,4]pyrrolo[1,2-c]imidazol-1-yl)-N-methyl-N-(oxetan-3-yl)acetamide]	87 ± 16	failed to reduce levels of NA
44 ± 22	inhibit DβH	Cl.Cn1c(CCN[C@@H]2CCOC2)c2n(c1=S)C[C@H](c1c(F)ccc(Br)c1F)C2 [Example 256, (S)-6-(3-bromo-2,6-difluorophenyl)-2-methyl-1-(2-(((R)-tetrahydrofuran-3-yl)amino)ethyl)-2,5,6,7-tetrahydro-3H-pyrrolo[1,2-c]imidazole-3-thione hydrochloride]	128 ± 64	failed to reduce levels of NA
43 ± 9	inhibit DβH	Cn1c(CC(=O)O)c2n(c1=S)C[C@@]1(c3c(F)ccc(Cl)c3F)C[C@@H]21 [Example 231, 2-((5aS,6aR)-5a-(3-chloro-2,6-difluorophenyl)-2-methyl-3-thioxo-2,3,5,5a,6,6a-hexahydrocyclopropa[3,4]pyrrolo[1,2-c]imidazol-1-yl)acetic Acid]	99 ± 14	failed to reduce levels of NA
21 ± 9	inhibit DβH	Fc1ccc(Br)c(F)c1[C@@H]1Cc2c(CCN3CCOCC3)[nH]c(=S)n2C1 [Example 195, (S)-6-(3-bromo-2,6-difluorophenyl)-1-(2-morpholinoethyl)-2,5,6,7-tetrahydro-3H-pyrrolo[1,2-c]imidazole-3-thione]	123 ± 55	failed to reduce levels of NA
45 ± 8	inhibit DβH	F.Fc1ccc(Br)cc1[C@]12C[C@H]1c1c(CCN3CCOCC3)[nH]c(=S)n1C2 [Example 191, (5aS,6aR)-5a-(5-bromo-2-fluorophenyl)-1-(2-morpholinoethyl)-5,5a,6,6a-tetrahydrocyclopropa[3,4]pyrrolo[1,2-c]imidazole-3(2H)-thione hydrofluoride]	83 ± 10	failed to reduce levels of NA
